From ChEMBL document CHEMBL3991601, “The target landscape of clinical kinase drugs” (Science, 2017) come the findings set out here.

Test [1] addresses Cyclin-dependent kinase 2 (Homo sapiens, UniProt P24941).
Test [2] deals with T1, Discoidin domain-containing receptor 2 (Homo sapiens, UniProt Q16832).
T1 sequence (Q16832 whole entry): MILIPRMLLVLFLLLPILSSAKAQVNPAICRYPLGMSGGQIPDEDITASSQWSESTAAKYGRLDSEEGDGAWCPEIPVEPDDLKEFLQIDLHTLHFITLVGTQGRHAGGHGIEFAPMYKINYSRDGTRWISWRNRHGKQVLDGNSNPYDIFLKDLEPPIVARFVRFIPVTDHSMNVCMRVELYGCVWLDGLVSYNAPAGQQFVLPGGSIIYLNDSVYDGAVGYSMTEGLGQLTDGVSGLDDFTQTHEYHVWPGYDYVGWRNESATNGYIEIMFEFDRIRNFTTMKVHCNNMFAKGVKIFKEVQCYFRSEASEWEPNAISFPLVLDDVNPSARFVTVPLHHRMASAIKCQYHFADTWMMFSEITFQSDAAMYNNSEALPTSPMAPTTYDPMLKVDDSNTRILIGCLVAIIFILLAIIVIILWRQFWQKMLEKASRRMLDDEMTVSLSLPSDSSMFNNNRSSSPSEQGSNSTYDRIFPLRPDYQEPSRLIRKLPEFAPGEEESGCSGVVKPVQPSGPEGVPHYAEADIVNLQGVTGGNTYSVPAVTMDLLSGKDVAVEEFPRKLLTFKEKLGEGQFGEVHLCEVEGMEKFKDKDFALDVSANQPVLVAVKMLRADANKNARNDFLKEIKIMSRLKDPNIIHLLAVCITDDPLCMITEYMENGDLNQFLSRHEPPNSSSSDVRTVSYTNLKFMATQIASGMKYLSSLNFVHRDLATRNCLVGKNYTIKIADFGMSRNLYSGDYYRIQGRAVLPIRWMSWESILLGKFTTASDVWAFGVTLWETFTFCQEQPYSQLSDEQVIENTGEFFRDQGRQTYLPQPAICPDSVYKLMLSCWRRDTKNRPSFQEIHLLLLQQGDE

A further test has as its target T2, Heme oxygenase 2 (Homo sapiens, UniProt P30519).
T2 sequence (P30519 whole entry): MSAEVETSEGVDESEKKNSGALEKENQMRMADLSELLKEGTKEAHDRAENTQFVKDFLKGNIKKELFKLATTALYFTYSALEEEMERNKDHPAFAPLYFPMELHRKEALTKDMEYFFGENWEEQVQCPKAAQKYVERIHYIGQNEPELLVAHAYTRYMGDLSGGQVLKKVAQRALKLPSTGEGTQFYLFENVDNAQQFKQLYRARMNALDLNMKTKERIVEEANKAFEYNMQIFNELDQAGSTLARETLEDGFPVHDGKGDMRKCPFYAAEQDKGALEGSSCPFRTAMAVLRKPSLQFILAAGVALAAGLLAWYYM

Test [3] addresses Tyrosine-protein kinase Lyn (Homo sapiens, UniProt P07948).
Test [4] concerns the target T3, Serine/threonine-protein kinase Nek3 (Homo sapiens, UniProt P51956).
T3 sequence (P51956 whole entry): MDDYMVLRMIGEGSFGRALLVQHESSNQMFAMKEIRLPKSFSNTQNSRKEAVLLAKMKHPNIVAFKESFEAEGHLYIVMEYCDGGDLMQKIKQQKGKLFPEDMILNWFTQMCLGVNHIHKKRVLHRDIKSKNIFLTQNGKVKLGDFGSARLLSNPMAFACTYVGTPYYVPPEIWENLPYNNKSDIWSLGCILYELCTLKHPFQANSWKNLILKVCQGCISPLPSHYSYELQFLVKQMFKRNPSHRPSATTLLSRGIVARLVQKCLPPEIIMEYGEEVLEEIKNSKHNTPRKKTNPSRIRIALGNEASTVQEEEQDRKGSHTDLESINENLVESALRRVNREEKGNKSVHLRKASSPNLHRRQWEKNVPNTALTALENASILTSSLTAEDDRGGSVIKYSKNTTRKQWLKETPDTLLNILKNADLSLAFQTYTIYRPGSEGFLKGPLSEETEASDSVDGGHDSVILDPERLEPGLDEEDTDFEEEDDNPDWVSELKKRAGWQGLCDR

For test [5], the target named is T4, NUAK family SNF1-like kinase 2 (Homo sapiens, UniProt Q9H093).
T4 sequence (Q9H093 whole entry): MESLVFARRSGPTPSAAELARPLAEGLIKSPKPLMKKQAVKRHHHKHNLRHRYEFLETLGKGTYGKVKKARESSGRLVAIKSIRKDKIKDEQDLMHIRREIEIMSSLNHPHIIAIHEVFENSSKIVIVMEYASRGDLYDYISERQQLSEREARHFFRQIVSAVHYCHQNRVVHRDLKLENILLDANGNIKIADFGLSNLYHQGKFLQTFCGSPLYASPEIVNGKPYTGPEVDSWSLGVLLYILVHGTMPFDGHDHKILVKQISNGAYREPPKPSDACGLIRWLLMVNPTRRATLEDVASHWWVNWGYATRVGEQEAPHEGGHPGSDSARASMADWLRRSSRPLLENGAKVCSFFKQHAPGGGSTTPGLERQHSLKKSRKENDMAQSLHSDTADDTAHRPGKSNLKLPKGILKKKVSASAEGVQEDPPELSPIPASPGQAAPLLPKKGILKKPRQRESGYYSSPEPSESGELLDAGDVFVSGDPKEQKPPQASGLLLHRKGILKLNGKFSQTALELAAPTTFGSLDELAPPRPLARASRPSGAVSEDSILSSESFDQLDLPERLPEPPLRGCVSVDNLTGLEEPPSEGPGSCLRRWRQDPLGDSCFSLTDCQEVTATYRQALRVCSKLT

For a further test, the target named is Obg-like ATPase 1 (Homo sapiens, UniProt Q9NTK5).
Test [6] deals with Ribosomal protein S6 kinase alpha-4 (Homo sapiens, UniProt O75676).

The source made the active and inactive calls. For most assays here, no stated cut-off is given here; in the data, actives have a measured Kd and inactives only a lower limit. Where only a bound is given, the exact number is not on record here.

Obg-like ATPase 1, sequence (Q9NTK5 whole entry, looked up): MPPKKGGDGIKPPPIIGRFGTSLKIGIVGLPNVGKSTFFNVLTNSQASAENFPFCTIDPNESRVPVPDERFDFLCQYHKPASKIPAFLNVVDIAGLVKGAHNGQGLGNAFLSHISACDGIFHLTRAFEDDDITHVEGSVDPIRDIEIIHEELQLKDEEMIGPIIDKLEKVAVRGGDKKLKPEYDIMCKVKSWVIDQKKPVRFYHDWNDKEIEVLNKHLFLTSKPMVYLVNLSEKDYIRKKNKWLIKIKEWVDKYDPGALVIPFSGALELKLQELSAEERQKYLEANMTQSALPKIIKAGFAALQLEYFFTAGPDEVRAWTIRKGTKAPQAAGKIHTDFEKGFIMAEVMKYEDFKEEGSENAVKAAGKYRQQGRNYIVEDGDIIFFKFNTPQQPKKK
Ribosomal protein S6 kinase alpha-4, sequence (O75676 whole entry): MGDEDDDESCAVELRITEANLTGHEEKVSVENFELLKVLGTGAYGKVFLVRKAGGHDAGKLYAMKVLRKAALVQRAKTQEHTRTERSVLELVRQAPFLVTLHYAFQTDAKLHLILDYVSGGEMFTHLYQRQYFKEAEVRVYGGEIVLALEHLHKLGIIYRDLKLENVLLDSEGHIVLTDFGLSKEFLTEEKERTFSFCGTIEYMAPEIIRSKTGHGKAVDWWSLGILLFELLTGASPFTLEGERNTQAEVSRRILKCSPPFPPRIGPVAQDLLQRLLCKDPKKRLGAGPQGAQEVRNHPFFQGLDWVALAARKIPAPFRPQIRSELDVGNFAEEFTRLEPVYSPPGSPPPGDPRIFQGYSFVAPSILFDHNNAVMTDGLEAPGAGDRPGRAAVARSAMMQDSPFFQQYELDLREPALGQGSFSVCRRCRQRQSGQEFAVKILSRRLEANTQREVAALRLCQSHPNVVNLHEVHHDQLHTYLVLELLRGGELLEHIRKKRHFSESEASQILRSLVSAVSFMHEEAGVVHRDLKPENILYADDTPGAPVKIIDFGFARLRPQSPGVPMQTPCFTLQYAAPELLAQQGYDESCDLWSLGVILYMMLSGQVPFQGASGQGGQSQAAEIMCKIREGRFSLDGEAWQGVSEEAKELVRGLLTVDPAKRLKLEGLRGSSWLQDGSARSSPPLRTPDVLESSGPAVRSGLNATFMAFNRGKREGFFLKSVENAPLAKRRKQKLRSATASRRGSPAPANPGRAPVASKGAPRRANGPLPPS
Tyrosine-protein kinase Lyn, sequence (P07948 whole entry): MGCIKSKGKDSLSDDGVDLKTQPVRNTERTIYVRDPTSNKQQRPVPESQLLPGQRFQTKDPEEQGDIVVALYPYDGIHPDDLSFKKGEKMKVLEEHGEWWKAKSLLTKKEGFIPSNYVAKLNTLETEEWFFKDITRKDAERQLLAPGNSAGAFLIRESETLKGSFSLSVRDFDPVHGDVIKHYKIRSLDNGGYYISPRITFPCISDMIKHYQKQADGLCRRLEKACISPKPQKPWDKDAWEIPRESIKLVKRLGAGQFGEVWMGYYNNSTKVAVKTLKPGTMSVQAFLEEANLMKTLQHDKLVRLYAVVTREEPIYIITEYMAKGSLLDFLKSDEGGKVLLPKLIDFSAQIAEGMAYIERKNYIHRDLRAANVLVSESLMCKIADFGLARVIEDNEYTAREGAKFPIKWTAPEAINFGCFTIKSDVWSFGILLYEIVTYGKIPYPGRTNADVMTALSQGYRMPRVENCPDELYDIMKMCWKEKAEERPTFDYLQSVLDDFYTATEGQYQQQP

For `COc1cc(F)c(F)c(Nc2ccc(I)cc2F)c1NS(=O)(=O)C1(C[C@H](O)CO)CC1` [REFAMETINIB], the Kd (in test [1]; in test [2]; at Heme oxygenase 2; in test [3]; in test [4]; in test [5]) was > 30 µM (inactive) in each case. For the same compound, the Kd (at Obg-like ATPase 1; in test [6]) was > 30 µM (inactive) in each case.
Take `CCOc1ccn(-c2ccc(F)cc2)c(=O)c1C(=O)Nc1ccc(Oc2ccnc(N)c2Cl)c(F)c1` [BMS-777607]: the Kd was > 30 µM (inactive) in test [1]; 0.065 µM (active) in test [2]; > 30 µM (inactive) at Heme oxygenase 2; > 30 µM (inactive) in test [3]; > 30 µM (inactive) in test [4]; > 30 µM (inactive) in test [5]. The Kd (at Obg-like ATPase 1; in test [6]) was > 30 µM (inactive) throughout.
For the compound `CNC(=O)c1cc(COc2nnc(Nc3ccc(Cl)cc3)c3ccoc23)ccn1` [TELATINIB], the Kd (in test [1]; in test [2]; on Heme oxygenase 2; in test [3]; in test [4]; in test [5]) was > 30 µM (inactive) in each case. Moreover, the Kd (on Obg-like ATPase 1; in test [6]) was > 30 µM (inactive) each time.
On to `COc1cc2ncnc3c2cc1OCCCCCN(C)Cc1ccc(Br)cc1N3` [JNJ-26483327], for which the Kd (in test [1]; in test [2]; at Heme oxygenase 2; in test [3]; in test [4]; in test [5]) was > 30 µM (inactive) throughout. Also, the Kd (at Obg-like ATPase 1; in test [6]) was > 30 µM (inactive) in each case.
Consider `CNC(=O)c1cccc(-c2ccc3c(N4CCOC[C@@H]4C)nc(N4CCOC[C@@H]4C)nc3n2)c1` [VISTUSERTIB], for which the Kd (in test [1]; in test [2]; at Heme oxygenase 2; in test [3]; in test [4]; in test [5]) was > 30 µM (inactive) each time. The Kd (at Obg-like ATPase 1; in test [6]) was > 30 µM (inactive) throughout.
As to `CC1(COc2ccc3c(c2)ncn3-c2ccc3cccc(N4CCC(N)CC4)c3n2)COC1` [CRENOLANIB], the Kd in test [1] was 0.128 µM (active); in test [2], > 30 µM (inactive); at Heme oxygenase 2, > 30 µM (inactive); in test [3], > 30 µM (inactive); in test [4], > 30 µM (inactive); in test [5], > 30 µM (inactive). Moreover, the Kd was 0.007 µM at Obg-like ATPase 1 and > 30 µM (inactive) in test [6].
As to `NC(=O)c1ccc(N(C(N)=O)c2c(F)cccc2F)nc1-c1ccc(F)cc1F` [VX-702], the Kd (in test [1]; in test [2]; on Heme oxygenase 2; in test [3]; in test [4]; in test [5]) was > 30 µM (inactive) each time. Also, the Kd (at Obg-like ATPase 1; in test [6]) was > 30 µM (inactive) each time.
On to `COc1ccc(-c2ccc3ncc4c(c3c2)n(-c2ccc(N3CCNCC3)c(C(F)(F)F)c2)c(=O)n4C)cn1` [BGT-226 FREE BASE], for which the Kd (in test [1]; in test [2]; on Heme oxygenase 2; in test [3]; in test [4]; in test [5]) was > 30 µM (inactive) each time. In addition, the Kd (at Obg-like ATPase 1; in test [6]) was > 30 µM (inactive) each time.
Consider `CNC(=O)c1ccc(Nc2ncc(C(F)(F)F)c(NCc3nccnc3N(C)S(C)(=O)=O)n2)cc1` [DEFACTINIB], for which the dissociation constant Kd was 1.66 µM in test [1]; > 30 µM (inactive) in test [2]; > 30 µM (inactive) on Heme oxygenase 2; > 30 µM (inactive) in test [3]; > 30 µM (inactive) in test [4]; 0.454 µM in test [5]. The Kd (on Obg-like ATPase 1; in test [6]) was > 30 µM (inactive) in each case.
Take `Cc1cc(C(=O)Nc2cc(Oc3ccc4nc(NC(=O)C5CC5)cn4n3)ccc2C)n(C)n1` [TAK-593]: the Kd in test [1] is > 30 µM (inactive); in test [2] it was 19.3 µM (active); on Heme oxygenase 2 it was > 30 µM (inactive); in test [3], > 30 µM (inactive); in test [4], > 30 µM (inactive); in test [5], > 30 µM (inactive). Also, the Kd (at Obg-like ATPase 1; in test [6]) was > 30 µM (inactive) in each case.
Regarding `CCN(CCCOc1ccc2c(Nc3cc(CC(=O)Nc4cccc(F)c4)n[nH]3)ncnc2c1)CCOP(=O)(O)O` [BARASERTIB], the Kd in test [1] is > 30 µM (inactive); in test [2], > 30 µM (inactive); on Heme oxygenase 2, > 30 µM (inactive); in test [3] it was 3.63 µM (active); in test [4], > 30 µM (inactive); in test [5] it was > 30 µM (inactive). In addition, the Kd (at Obg-like ATPase 1; in test [6]) was > 30 µM (inactive) throughout.
In the case of `O=S(=O)(c1cccc2c(O)nccc12)N1CCCNCC1` [HYDROXYFASUDIL], the Kd (in test [1]; in test [2]; at Heme oxygenase 2; in test [3]; in test [4]; in test [5]) was > 30 µM (inactive) throughout. The Kd (at Obg-like ATPase 1; in test [6]) was > 30 µM (inactive) in each case.
Regarding `C=CC(=O)Nc1cccc(Nc2nc(Nc3ccc(N4CCN(C(C)=O)CC4)cc3OC)ncc2C(F)(F)F)c1` [ROCILETINIB], the Kd (in test [1]; in test [2]; at Heme oxygenase 2; in test [3]; in test [4]; in test [5]) was > 30 µM (inactive) throughout. For the same compound, the Kd (at Obg-like ATPase 1; in test [6]) was > 30 µM (inactive) throughout.

For orientation: Kd means the constant that tells how readily two partners part at equilibrium.
